Data taken from BindingDB's records for doi:10.1016/j.bmc.2019.115125 (Duquesne University, 2019).
pIC50: −log10 of the molar value.

How the values were obtained:
[1] = Binding affinity to human PCFT expressed in Chinese hamster R2/PCFT4 cells assessed as antiproliferative activity measured as reduction in cell growth after 96 hrs by Cell-Titer Blue assay
[2] = Binding affinity to human RFC expressed in Chinese hamster PC43-10 cells assessed as antiproliferative activity measured as reduction in cell growth after 96 hrs by Cell-Titer Blue assay
[3] = Binding affinity to human FRalpha expressed in Chinese hamster RT16 cells assessed as antiproliferative activity measured as reduction in cell growth after 96 hrs by Cell-Titer Blue assay

pIC50 [1]	pIC50 [2]	pIC50 [3]	SMILES
7.31	< 6.00	–	CN(Cc1cc2c(=O)[nH]c(N)nc2[nH]1)C(=O)c1ccc(C(=O)N[C@@H](CCC(=O)O)C(=O)O)cc1
< 6.00	< 6.00	6.06	CN(Cc1cc2c(=O)[nH]c(N)nc2[nH]1)C(=O)c1cc(C(=O)N[C@@H](CCC(=O)O)C(=O)O)cs1
< 6.00	< 6.00	8.11	CN(Cc1cc2c(=O)[nH]c(N)nc2[nH]1)C(=O)c1ccc(C(=O)N[C@@H](CCC(=O)O)C(=O)O)s1
6.13	< 6.00	8.74	CN(Cc1cc2c(=O)[nH]c(N)nc2[nH]1)C(=O)c1cccc(C(=O)N[C@@H](CCC(=O)O)C(=O)O)c1
< 6.00	< 6.00	< 6.00	CN(Cc1cc2c(=O)[nH]c(N)nc2[nH]1)S(=O)(=O)c1ccc(C(=O)N[C@@H](CCC(=O)O)C(=O)O)cc1
< 6.00	< 6.00	< 6.00	CN(Cc1cc2c(=O)[nH]c(N)nc2[nH]1)C(=O)c1csc(C(=O)N[C@@H](CCC(=O)O)C(=O)O)c1
